This is an account of results in PMC10976173, “Synthesis of 5-Benzylamino and 5-Alkylamino-Substituted Pyrimido[4,5-c]quinoline Derivatives as CSNK2A Inhibitors with Antiviral Activity” (Pharmaceuticals, 2024).

Converted amounts (≈) assume the structure as drawn. Read-outs that look alike come from different tables or passages of the source.

The term Aqueous Solubility denotes the concentration that dissolves in the medium under given conditions. In general, melting point refers to the temperature, or range, at which the solid turns liquid. In general, IC50 refers to the concentration needed to halve the response being measured. For orientation: solubility means how much of the substance goes into solution per volume. The low end stands for little dissolved substance, the high end for much dissolved substance.

Details of data set [1]: method as in PMID 37077385. The settings on record: Kinetic solubility; ref [6]; cited from earlier work.
The subject of data set [2] is DiscoverX KinomeSCAN assay panel of >400 human kinases. Particulars: cited from earlier work; for Kinases Inhibited: Number of kinases showing 90% inhibition at 1 µM in DiscoverX KINOMEscan, ref [6].
A further data set has as its target T1, CSNK2A (CSNK2A2-NLuc) (Homo sapiens, UniProt P19784).
T1 construct: expressed in transfected cells; host or cells: HEK293
The experiment in a line: In-cell CSNK2A target engagement by NanoBRET assay. It counts as cell-based. Particulars: for IC50: In-cell target engagement by NanoBRET assay, HEK293 cells; for Designation: active / inactive analogs with 10-fold differences in IC50; for fold increase in CSNK2A potency: compared to 4q; for fold decrease in CSNK2A potency: compared to the parent compounds (4s and 4w).

The nature of data set [3]: Kinetic solubility in PBS pH 7.4. Particulars: phosphate-buffered saline, pH 7.4, aqueous buffer, kinetic from dmso stock, PBS pH 7.4, 24 h. It counts as physicochemical. As to the method:
Kinetic solubility assay was conducted using 10 mM DMSO stocks of compounds in phosphate-buffered saline solution (PBS) at pH 7.4 by Analiza, Inc., Cleveland, OH, USA. […] The calculated values were corrected for the background nitrogen in the media and DMSO.

Data set [4] deals with Mouse Hepatitis Virus (MHV). The experiment in a line: microbe, parasite or virus in culture. It counts as cell-based. Particulars: Murine coronavirus, read-out: MHV IC50.
Procedure: DBT cells were plated in 96-well plates to be 80% confluent at the start of the assay. Test compounds were diluted to 30 µM in DMEM. […] Molnupiravir (10 µM) was included as a positive control. […] After 1 h, MHV-NLuc was added at an MOI of 0.1 in 50 μL DMEM so that the final concentration of the first dilution of compound was 30 μM (T = 0). After 10 h, the media was aspirated, and the cells were washed with PBS and lysed with passive lysis buffer (Promega) for 20 min at room temperature. Relative light units (RLUs) were measured using a luminometer (Promega; GloMax). Triplicate data were analyzed in GraphPad Prism version 9.5.1 to generate IC50 values (Figure S2).
[5] abbreviates: Inhibition of MHV-NLuc in DBT cells.

T1 sequence (P19784 whole entry): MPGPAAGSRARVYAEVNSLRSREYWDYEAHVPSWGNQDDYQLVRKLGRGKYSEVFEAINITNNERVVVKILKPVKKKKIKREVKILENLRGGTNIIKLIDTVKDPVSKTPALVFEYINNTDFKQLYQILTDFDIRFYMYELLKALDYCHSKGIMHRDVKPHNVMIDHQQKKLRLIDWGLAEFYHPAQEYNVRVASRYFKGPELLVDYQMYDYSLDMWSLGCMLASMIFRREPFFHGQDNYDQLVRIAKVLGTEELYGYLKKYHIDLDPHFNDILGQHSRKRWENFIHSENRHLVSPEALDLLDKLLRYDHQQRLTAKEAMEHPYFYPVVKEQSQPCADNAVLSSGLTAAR
Procedure for CSNK2A (CSNK2A2-NLuc): A transfection complex of DNA at 10 µg/mL was created, consisting of 9 µg/mL of carrier DNA (Promega, Madison, WI, USA) and 1 µg/mL of CSNK2A2-NLuc fusion DNA in Opti-MEM without serum (Gibco). FuGENE HD (Promega) was added at 30 µL/mL to form a lipid/DNA complex. The solution was then mixed and incubated at room temperature for 20 min. […] The following day, the media was removed via aspiration and replaced with 85 μL of Opti-MEM without phenol red. A total of 5 μL per well of 20×-NanoBRET Tracer K10 (Promega) at 5 μM in Tracer Dilution Buffer (Promega N291B) was added to all wells, except the “no tracer” control wells. Test compounds (10 mM in DMSO) were diluted 100× in Opti-MEM media to prepare stock solutions and evaluated at eleven concentrations. A total of 10 μL per well of the 10-fold test compound stock solutions (final assay concentration of 0.1% DMSO) was added. […] 96-well plates containing cells with NanoBRET Tracer K10 and test compounds (100 µL total volume per well) were equilibrated (37 °C/5% CO2) for 2 h. The plates were cooled to room temperature for 15 min. […] A total of 50 μL of the 3× substrate/extracellular NL inhibitor were added to each well. The plates were read within 30 min on a GloMax Discover luminometer (Promega) equipped with 450 nm BP filter (donor) and 600 nm LP filter (acceptor) using 0.3 s integration time. Raw milliBRET (mBRET) values were obtained by dividing the acceptor emission values (600 nm) by the donor emission values (450 nm) and multiplying by 1000. […] The data were first normalized and then fit using Sigmoidal, 4PL binding curve in GraphPad Prism version 9.5.1 to determine IC50 values (Figure S1).

Consider `O=C(O)c1ccc2c(c1)nc(Nc1ccc3ccccc3c1)c1ncncc12` [Analog-11], for which the “Aqueous Solubility” value in data set [1] is reported as 54 µM. The “Kinases Inhibited” value in data set [2] is given as 10/403.
In turn, `O=C(O)c1ccc2c(c1)nc(NCC1CCC(F)(F)CC1)c1ncncc12` [Compound 4aa, 5-(((4,4-difluorocyclohexyl)methyl)amino)pyrimido[4,5-c]quinoline-8-carboxylic acid] yielded a melting point of 288 to 291 °C. On CSNK2A (CSNK2A2-NLuc), this compound came in with a half-maximal inhibitory concentration (IC50) of 190 nM. The compound also returned a solubility at 24 h in data set [3] of 180 µM (≈ 67 µg/mL). Further, the IC50 in data set [4] (setting [5]) was 10000 nM.
`O=C(O)c1ccc2c(c1)nc(NC1CCc3ccccc31)c1ncncc12` (stereo not shown) [Compound 4af, 5-((2,3-dihydro-1H-inden-1-yl)amino)pyrimido[4,5-c]quinoline-8-carboxylic acid] showed a melting point of 270 to 273 °C. Moreover, at CSNK2A (CSNK2A2-NLuc), the half-maximal inhibitory concentration (IC50) amounted to 230 nM and the Designation entry is on record as “Active”. For the same compound, in data set [3], the solubility at 24 h came to 160 µM (≈ 57 µg/mL). Moreover, the IC50 in data set [4] (setting [5]) was determined as 22000 nM.
Compound `O=C(O)c1ccc2c(c1)nc(NCc1ccc(Cl)cc1)c1ncncc12` [Compound 4c, 5-((4-chlorobenzyl)amino)pyrimido[4,5-c]quinoline-8-carboxylic acid] had a melting point of 203 to 205 °C. The same compound gave a half-maximal inhibitory concentration (IC50) on CSNK2A (CSNK2A2-NLuc) of 130 nM. This compound also came in with a solubility at 24 h in data set [3] of 160 µM (≈ 58.4 µg/mL). For the same compound, the IC50 in data set [4] (setting [5]) was 13000 nM.
On the same counts, the results for `O=C(O)c1ccc2c(c1)nc(NCc1ccc(F)cc1)c1ncncc12` [Compound 4g, 5-((4-fluorobenzyl)amino)pyrimido[4,5-c]quinoline-8-carboxylic acid] are 235 to 238 °C, 150 nM, 180 µM (≈ 62.7 µg/mL) and 10000 nM.
The compound `CC(C)CNc1nc2cc(C(=O)O)ccc2c2cncnc12` [Compound 4q, 5-(isobutylamino)pyrimido[4,5-c]quinoline-8-carboxylic acid] gave a melting point of 270 to 273 °C. The IC50 against CSNK2A (CSNK2A2-NLuc) was determined as 1200 nM. Besides, the concentration in solution in data set [3] (solubility at 24 h) came to 170 µM (≈ 50.4 µg/mL).
On to `O=C(O)c1ccc2c(c1)nc(NCC1CCC1)c1ncncc12` [Compound 4r, 5-((cyclobutylmethyl)amino)pyrimido[4,5-c]quinoline-8-carboxylic acid], for which the melting point lay within 265 to 268 °C. Moreover, on CSNK2A (CSNK2A2-NLuc), the half-maximal inhibitory concentration (IC50) turned out to be 410 nM and the “fold increase in CSNK2A potency” value is reported as 3 fold. Moreover, the solubility at 24 h in data set [3] turned out to be 220 µM (≈ 67.8 µg/mL).
On the same counts, the results for `O=C(O)c1ccc2c(c1)nc(NCC1CCCC1)c1ncncc12` [Compound 4s, 5-((cyclopentylmethyl)amino)pyrimido[4,5-c]quinoline-8-carboxylic acid] are 261 to 264 °C, 320 nM, 3 fold and 210 µM (≈ 67.7 µg/mL).
The compound `O=C(O)c1ccc2c(c1)nc(NCC1CCCCC1)c1ncncc12` [Compound 4t, 5-((cyclohexylmethyl)amino)pyrimido[4,5-c]quinoline-8-carboxylic acid] showed a melting point of 281 to 283 °C. In addition, on CSNK2A (CSNK2A2-NLuc), the IC50 was determined as 140 nM and the Designation result was “Active”. Besides, the concentration in solution in data set [3] (solubility at 24 h) came to 180 µM (≈ 60.6 µg/mL). The IC50 in data set [4] (setting [5]) is 13000 nM.
Compound `O=C(O)c1ccc2c(c1)nc(NCC1CCCCCC1)c1ncncc12` [Compound 4u, 5-((cycloheptylmethyl)amino)pyrimido[4,5-c]quinoline-8-carboxylic acid] came in with a melting point of 280 to 283 °C. In addition, the IC50 on CSNK2A (CSNK2A2-NLuc) came to 200 nM. In data set [3], the concentration in solution (solubility at 24 h) came to 150 µM (≈ 52.6 µg/mL). For the same compound, in data set [4] (setting [5]), the IC50 is 18000 nM.
Regarding `CC(C)(C)CNc1nc2cc(C(=O)O)ccc2c2cncnc12` [Compound 4v, 5-(neopentylamino)pyrimido[4,5-c]quinoline-8-carboxylic acid], the melting point was in the range of 282 to 285 °C. The compound further showed an IC50 against CSNK2A (CSNK2A2-NLuc) of 870 nM. This compound also yielded a solubility at 24 h in data set [3] of 190 µM (≈ 59 µg/mL).
As for `O=C(O)c1ccc2c(c1)nc(NCC13CCC(CC1)C3)c1ncncc12` [Compound 4w, 5-((bicyclo[2.2.1]heptan-1-ylmethyl)amino)pyrimido[4,5-c]quinoline-8-carboxylic acid], the melting point fell in the range of 291 to 292 °C. Further, on CSNK2A (CSNK2A2-NLuc), inhibition was half-maximal at 170 nM (IC50). Moreover, the concentration in solution in data set [3] (solubility at 24 h) came to 190 µM (≈ 66.2 µg/mL). Besides, in data set [4] (setting [5]), the half-inhibitory concentration (IC50) turned out to be 17000 nM.
On the same counts, the results for `O=C(O)c1ccc2c(c1)nc(NCC13CC4CC(CC(C4)C1)C3)c1ncncc12` [Compound 4x, 5-((((3r,5r,7r)-adamantan-1-yl)methyl)amino)pyrimido[4,5-c]quinoline-8-carboxylic acid] are 292 to 296 °C, 140 nM, around 10 µM (≈ 3.88 µg/mL) and above 30000 nM.
`O=C(O)c1ccc2c(c1)nc(NCC1CCOC1)c1ncncc12` (stereo not shown) [Compound 4y, 5-(((tetrahydrofuran-3-yl)methyl)amino)pyrimido[4,5-c]quinoline-8-carboxylic acid] registered a melting point of 160 to 164 °C. Further, at CSNK2A (CSNK2A2-NLuc), the IC50 came to 3100 nM and the “fold decrease in CSNK2A potency” value worked out at 10 fold. For the same compound, in data set [3], the solubility at 24 h was determined as 140 µM (≈ 45.4 µg/mL).
For `O=C(O)c1ccc2c(c1)nc(NCC13CCC(CC1)O3)c1ncncc12` [Compound 4z, 5-(((7-oxabicyclo[2.2.1]heptan-1-yl)methyl)amino)pyrimido[4,5-c]quinoline-8-carboxylic acid] the same measures were 280 to 284 °C, 1400 nM, 10 fold and 220 µM (≈ 77.1 µg/mL).
In the case of `CCC(=O)Nc1cc(Nc2cc(NC3CC3)n3ncc(C#N)c3n2)ccc1C` [SGC-CK2-1], the “Kinases Inhibited” value in data set [2] is given as 3/403. Also, the “inhibition of CSNK2A1, CSNK2A2, and STK17B” value in data set [2] (at 1 µM, only these kinases of the panel, ref [3]) is 90%.
Regarding `O=C(O)c1ccc2c(c1)nc(NCc1ccccc1)c1ncncc12` [SGC-CK2-2, reference compound], the “Aqueous Solubility” value in data set [1] was 210 µM. In addition, in data set [4], the IC50 was found to be 15000 nM.
With `O=C(O)c1ccc2c(c1)nc(Nc1cccc(Cl)c1)c1ccncc12` [silmitasertib, 5-(3-chlorophenylamino)benzo[c][2,6]naphthyridine-8-carboxylic acid], the “Aqueous Solubility” value in data set [1] is 280 µM. In addition, the “Kinases Inhibited” value in data set [2] is 28/403.
